Assay results taken from patent US20240043808A1, “Screenable Liver Disease Models and Methods” (INSPHERO AG, priority 2016, published 2024).
“Also recorded” adds a separate entry of the source. Read-outs that look alike come from different tables or passages of the source.

Experiments:
liver microtissues [1] = assay: Lipid loading of liver microtissues, nile-red staining of lipid accumulation (steatosis); assay type: cell-based; conditions: for lipid accumulation in microtissues: increasing concentrations of free fatty acid, nile-red staining
Protocol: FIG. 3A(1): Induction of liver-disease phenotype “steatosis” as determined by lipid accumulation. […] Images are depicted as maximal intensity projections.
FIG. 3A (2): Lipid accumulation in dependency of increasing concentrations of PA, OA or a combination thereof in a molar ratio of 2:1. The total amount of FFA was identical among the groups at a given concentration.
(§1) • Dissolve FFA-free BSA at RT for 1h in H2O for desired stock solution concentration • Dissolve desired amount of OA-Na in 1 mL 0.1 M NaOH-->at 70° C. • Dissolve desired amount of PA-Na 1 mL 0.1 M NaOH-->at 70° • Keep the FFAs on 70° C., while the BSA is placed on 37° C. • Mix FFA with BSA with a magnetic stirrer (for 30 min) • Dilute BSA with 0.1 M NaOH->vehicle control • Cool down to RT, sterile filter, aliquot and freeze. • For a final fatty acid (FA) solution dilute master stock in medium. • Replace medium of liver microtissues with FA-containing medium and incubate 2-7 days.

liver microtissues [2] = assay: ATP measurement after exposure of liver microtissues to free fatty acids; assay type: cell-based; conditions: increasing concentrations of FFA for 3-14 days; control BSA
Protocol: FIG. 3A(3): ATP measurements from identical groups after exposure to increasing concentrations of FFA for 3-14 days.
as §1

[3] = system: liver MT triple-culture (hepatocyte+inflammatory cells+stellate cells); assay: Pro-fibrotic gene expression in liver MT triple-culture treated with pro-fibrotic compounds; conditions: co-cultured microtissues, 14 days
Protocol: MT mRNA was extracted using TRIzol conventional procedure and fold induction were calculated as 2^(−ΔΔCT) for each sample and negative control and expressed as mean fold induction±S.E.M. of three replicates with six MTs each. Actin was used as reference gene for each sample.

[4] = system: liver MT triple-culture (hepatocyte+inflammatory cells+stellate cells); assay: Viability of liver MT triple-culture treated with pro-fibrotic compounds; conditions: co-cultured microtissues, exposure over 14 days
[5] = system: liver endothelial cells (LEC); conditions: 5 days treatment, sub-toxic doses, LEC-coated microtissues
Text: FIG. 7: Assessment of LEC-specific toxicity.
Spheroidal liver microtissues containing hepatocytes and Kupffer cells were coated with liver endothelial cells (LEC) and subjected to 5 days treatment with sub-toxic doses of Acetaminophen (APAP), Cyclophosphamide and Monocrotaline (FIG. 7). After the treatment, microtissues were collected, formalin fixed and paraffin embedded, sliced and stained by immunohistochemistry for the LEC-marker CD31.

[6] = system: triple/co-cultured (HepaRG THP1/hTERT-HSC) liver MT; assay: MTT viability of liver MT stimulated with inflammatory and pro-fibrotic stimuli; assay type: cell-based, human; conditions: co-cultured microtissues, 14 days of treatment
[7] = system: mono-cultured (HepaRG) and triple/co-cultured (HepaRG THP1/hTERT-HSC) liver MT; assay: Gene expression of fibrotic markers and cytokines in liver MT exposed to LPS, TNF-α and TGF-β1; assay type: cell-based, human; conditions: for IL-6 gene induction: HepaRG monocultures
Text: Induction of fibrosis biomarkers, Collagen I and IV upon treatment with inflammation-stimuli LPS or TNF-α and pro-fibrotic TGF-β1 signaling molecule. […] Actin was used as reference gene for each sample. ND: no-detected values. *; P≤0.05.
In order to assess the responsiveness towards prototypic inflammatory stimuli and pro-fibrotic stimuli on a gene-expression level, mono-cultured (HepaRG) and triple/co-cultured (HepaRG THP1/hTERT-HSC) liver MT were stimulated with inflammatory inducers (LPS or TNF-α) and the pro-fibrotic cytokine TGF-β1 to assess the cellular responses. Significant differences in the responses of the two types of MT were observed (FIG. 4). […] For example, mRNA of collagen I was only detected in the co-culture system, but not in the monocultures.

[8] = system: Human liver microtissues (+Kupffer cells) with stellate cells; assay: Inhibition of fibrosis progression, immunohistochemical staining of collagen I; assay type: cell-based; conditions: 7 days treatment, stellate cell comprising microtissues, in presence of TGF-β1
Text: FIG. 6: Therapeutic effect of inhibition of pro-fibrotic effector pathways (TGF-βR, TK-R) was confirmed in triple co-culture liver MTs. Human liver MTs prepared form primary human hepatocytes, primary human Kupffer cells and primary human stellate cells where treated with TGF-β1 alone, or in combination with undisclosed inhibitors of i) TGF-β1 receptor, ii) ALK5, and iii) Tyrosine Kinase receptors.
Human liver microtissues (+Kupffer cells) without stellate cells and with either a stellate cell line or primary human stellate cells were treated with a fibrosis inducer (TGF-β1) and in combination with an undisclosed fibrosis inhibitor. […] Even more pronounced is the difference between TGF-β1 treated stellate cell comprising microtissues and TGF-β1/inhibitor treated cultures.

## CCCCCCCC/C=C\CCCCCCCC(=O)O [OA, Oleate]
Liver microtissues [1]; FIG. 3A1
  steatosis phenotype (lipid droplets in hepatocytes): small lipid droplets (microvesicular steatosis)

## CCCCCCCCCCCCCCCC(=O)O [PA, palmitic acid]
Liver microtissues [2]
  ATP: decreased values in microtissues exposed to PA4 and higher
Liver microtissues [1]
  steatosis phenotype (lipid droplets in hepatocytes): rather macrovesicular phenotype
  lipid accumulation in microtissues: reduced lipid incorporation at concentrations higher than PA3
Liver microtissues [1]; listed as Palmitate
  lipid accumulation in microtissues: induced lipid accumulation

## CC(=N)S [TAA, Thiocetamide]
[3]
  transcriptional induction of collagen I, collagen IV, fibronectin I and CD44: greatly enhanced; also recorded: dose-dependent transcriptional induction
[4]
  MT viability: Dose-dependent loss of viability or metabolic activity; also recorded: dose-dependent decrease

## O=P1(N(CCCl)CCCl)NCCCO1 (centres unmarked) [cyclosphosphamide, Cyclophosphamide]
[5]
  LEC-marker CD31 (immunohistochemistry): heavily reduced or completely absent
[5]; listed as Cyclosphosphamide
  LEC-marker CD31 (immunohistochemistry): reduced LEC-presence

## C[C@H]1C(=O)O[C@@H]2CCN3CC=C(COC(=O)[C@](C)(O)[C@]1(C)O)[C@H]23 [monocrotalin, Monocrotaline]
[5]
  LEC-marker CD31 (immunohistochemistry): heavily reduced or completely absent
[5]; listed as Monocrotaline
  LEC-marker CD31 (immunohistochemistry): reduced LEC-presence

## TGF-β1: pro-fibrotic cytokine, fibrosis inducer
[6]
  cellular viability: decreased viability
[7]
  IL-6 gene induction: did not induce
[7]; co-cultures
  IL-6 gene expression: observed in co-cultures
[8]
  fibrotic phenotype, collagen I deposition: severe fibrotic phenotype with collagen deposition

## TNF-α
[6]
  cellular viability: increased cellular viability
[7]
  IL-6 gene induction: strongly responsive
